# Reference: US10729701B2, “Compounds that are analogs of squalamine, used as antibacterial agents” (VIRBAC, priority 2015, dated 2020)
# Like-named read-outs stand apart in the source and are kept apart here.
# What was measured:
# P. aeruginosa ATCC 27853 = test: Minimum inhibitory concentration (MIC), microplate dilution; type: cell-based; conditions: Pseudomonas aeruginosa, ATCC27853; Table I; Mueller-Hinton medium, 37° C., 24 h
# Procedure: (§1) A positive control (1940 μl of culture medium+40 μl of DMSO+20 μl of the bacterial suspension) from a defrosted biological strain (the preservation of the biological strains is carried out at −80° C. in glycerol). The strains used are S. aureus ATCC 25923, E. coli ATCC 25922, P. aeruginosa ATCC 27853, C. albicans CIP 1180-79 and E. faecalis CIP 103015.
# (§2) The microorganisms were handled under a hood in the laboratory of L2 type and, before any handling operation, a UV cycle was programmed and only sterile material was used. […] The chemical molecules to be tested were prepared in a DMSO/methanol (50/50) mixture at a concentration of 5 mg/ml.
# (§3) After incubating for 24 h, the optical density was measured using a spectrophotometer at 600 nm by withdrawing 100 μl of the bacterial suspension diluted in 900 μl of the sterile culture medium. This test required the use of a 96-well plate and the necessary volume of the microbial suspension to be inoculated was calculated for an OD corresponding to a value equal to 0.01 in each well. In this plate, the first line corresponded to the negative control (195 μl of sterile culture medium in each well), the second line to the positive control (inoculated culture medium with the addition of 2% of DMSO), the third line was charged twice with bacterial suspension, 8 μl of product to be tested was placed in each well. Subsequently, cascade half dilution was carried out starting from this line.
# (§4) The first column was used as inhibition control. A sterile filter was subsequently placed on the microplate, allowing the passage of gases but not of contaminants. The microplate was incubated at 37° C. in a humid atmosphere for 24 h.
# (§5) NB: The medium used is the Mueller-Hinton (MH) medium for the bacteria. All the tests were carried out in duplicate.
# (§6) After incubation, the filter was replaced with a transparent film and subsequently reading of OD was carried out in an IEMS plate spectrophotometer at 620 nm. A calculation of the minimum inhibitory concentration (MIC) was carried out.
# S. aureus ATCC 25923 = test: as above; type: cell-based; conditions: Staphylococcus aureus, ATCC25923; Table I; Mueller-Hinton medium, 37° C., 24 h
# Procedure: as §1, §2, §3, §4, §5, §6
# CHO-K1 cells = test: WST-1 cytotoxicity test; type: cell-based, Chinese hamster; conditions: Cricetulus griseus, WST-1 test, 24 hours, concentration reducing cell viability by 50%
# Procedure: The WST-1 test was used to measure the cytotoxic activity of the products. This is a colorimetric test which makes it possible to measure the viability and the degree of cell proliferation.
# The WST-1 test was carried out on Chinese hamster ovary cells. The CHO-K1 cells (ATCC, USA) are kept cultured in McCoy's 5 A medium additivated with 10% of fetal calf serum, with 2 mM of L-glutamine and with a penicillin/streptomycin mixture (100 U/ml: 10 μg/ml). Incubating is carried out at 37° C. under an atmosphere enriched in CO2 (5%) and subculturing is carried out every two days.
# The cells are transferred into 96-well plates (25 000 cells/ml) in complete McCoy's 5 A medium and are maintained at 37° C. for 24 h under a humid atmosphere enriched in CO2 (5%). Increasing concentrations of test products are added to the wells in duplicate tests and 8 growth controls containing the cells in the medium alone are included in each series of tests. After 24 hours at 37° C. (5% of CO2), the culture medium is removed, the cells are rinsed in phosphate buffer (PBS) and 50 μl of PBS containing 10% of WST-1 reactant are added to each well. After incubating at 37° C. for 20 minutes, the results are read by spectrophotometry at 450 nm.
# The results are expressed in the form of dose-response relationships, modeled by a nonlinear regression analysis using the TableCurve software.
# S. faecalis = test: Minimum inhibitory concentration (MIC), microplate dilution; type: cell-based, E. faecalis CIP 103015; conditions: Enterococcus faecalis; Table I; Mueller-Hinton medium, 37° C., 24 h
# Procedure: as §1, §2, §3, §4, §5, §6
# P. aeruginosa (PAO1) [1] = test: Potentiating of doxycycline activity by aminosteroidal derivative; type: cell-based, Pseudomonas aeruginosa; conditions: Doxycycline concentration used 2 μg/ml, 37° C., 24 h
# Procedure: (§7) This method requires the use of a 96-well plate; 100 μl of a liquid culture medium are deposited in each well and then inoculated with the microbial suspension prepared above. The necessary volume to be inoculated is calculated for an OD of 0.01, which corresponds to approximately 5×10^6 bacteria in each well. In this plate, the first line corresponds to a negative control (200 μl of sterile culture medium in each well), the second line to a positive control (100 μl of sterile culture medium+100 μl of a bacterial suspension), the third line contains 192 μl of culture medium; 8 μl of aminosteroidal product to be tested are placed in each well. Subsequently, cascade dilution is carried out starting from this line. 8 μl of a doxycycline solution (1 mg dissolved in 20 ml) are subsequently added to each well of lines 3 to 8, in order to obtain a final concentration of antibiotic of 2 μg/ml. 92 μl of bacterial suspension are subsequently added to lines 3 to 8. The results (the determination of the MIC (2 μg/ml of doxycycline) in the presence of X μg/ml of aminosteroidal derivative) are read after incubating at 37° C. for 24 h in a humid atmosphere. After incubating at 37° C. for 24 h, 40 μl of nitrotetrazolium iodide are added to each well, making it possible to reveal the presence of living bacteria by coloring the medium pink.
# (§8) The use of low amounts of aminosteroidal derivatives makes it possible to restore (to reduce) the necessary concentration of antibiotic to kill the strain under consideration.
# C. albicans = test: Minimum inhibitory concentration (MIC), microplate dilution; type: cell-based, C. albicans CIP 1180-79; conditions: Candida albicans; Table I; 37° C., 24 h
# Procedure: as §1, §2, §3, §4, §5, §6
# E. coli ATCC 25922 = test: as above; type: cell-based; conditions: Escherichia coli, ATCC25922
# Procedure: (§9) A positive control (1940 μl of culture medium+40 μl of DMSO+20 μl of the bacterial suspension) from a defrosted biological strain (the preservation of the biological strains is carried out at −80° C. in glycerol).
# as §2, §3, §4, §5, §6
# [2] = tested on: S. aureus Methicillin-resistant; test: as above; type: cell-based; conditions: Staphylococcus aureus
# Procedure: as §9, §2, §3, §4, §5, §6
# P. aeruginosa (PAO1) [3] = test: Potentiating of chloramphenicol activity by aminosteroidal derivative; type: cell-based, Pseudomonas aeruginosa; conditions: Chloramphenicol concentration used 4 μg/ml
# Procedure: as §7, with “8 μl of a doxycycline solution (1 mg dissolved in 20 ml) are subsequently added to each well of lines 3 to 8, in order to obtain a final concentration of antibiotic of 2 μg/ml.” left out, “The results (the determination of the MIC (2 μg/ml of doxycycline) in the presence of X μg/ml of aminosteroidal derivative) are read after incubating at 37° C. for 24 h in a humid atmosphere.” left out
# as §8
# P. aeruginosa (PAO1) [4] = test: MIC of conventional antibiotics alone; type: cell-based; conditions: Pseudomonas aeruginosa, PAO1
# [5] = Table I, Mueller-Hinton medium, 37° C., 24 h, read-out: MIC E. coli ATCC 25922
# [6] = Table II, comparison with state of the art compounds, read-out: MIC E. coli
# [7] = Table I, Mueller-Hinton medium, 37° C., 24 h
# [8] = Table II, comparison with state of the art compounds
Compound,MIC (P. aeruginosa ATCC 27853) [µg/mL],MIC (S. aureus ATCC 25923) [µg/mL],IC50 (CHO-K1 cells) [µM],MIC (S. faecalis) [µg/mL],Concentration of compound necessary in order to restore the activity of the antibiotic under consideration: Doxycycline (P. aeruginosa (PAO1) [1]) [µg/mL],MIC (C. albicans) [µg/mL],MIC (E. coli ATCC 25922; [5]) [µg/mL],MIC (E. coli ATCC 25922; [6]) [µg/mL],"MIC [2, 7] [µg/mL]","MIC [2, 8] [µg/mL]",Concentration of compound necessary in order to restore the activity of the antibiotic under consideration: Chloramphenicol (P. aeruginosa (PAO1) [3]) [µg/mL],MIC (P. aeruginosa (PAO1) [4]) [µg/mL]
"CC(C)CCC[C@@H](C)[C@H]1CCC2C3C(CC[C@@]21C)[C@@]1(C)CC[C@H](NCCCNCCCN)C[C@@H]1C[C@@H]3O (stereo partly drawn) [SA-3, 3β-Norspermidino-7β-hydroxy-5α-cholestane]",40,5,32,2.5,5,2.5,20,20,2.5,2.5,10,–
"CC(C)[C@@H](CC[C@@H](C)[C@H]1CC[C@H]2[C@@H]3[C@H](O)C[C@H]4C[C@@H](NCCCNCCCCN)CC[C@]4(C)[C@H]3CC[C@]12C)OS(=O)(=O)O [Squalamine, squalamine]",20,4,–,4,1.75,2,12,–,4,–,1.75,–
"CC(C)CCC[C@@H](C)[C@H]1CCC2C3C(CC[C@@]21C)[C@@]1(C)CC[C@H](NCCCNCCCCNCCCN)C[C@@H]1C[C@@H]3O (stereo partly drawn) [SA-2, 3β-Spermino-7β-hydroxy-5α-cholestane]",32,4,50,2,4,2,32,32,2,2,16,–
O=C(N[C@H](CO)[C@H](O)c1ccc([N+](=O)[O-])cc1)C(Cl)Cl [chloramphenicol],–,–,–,–,–,–,–,–,–,–,–,1020
